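Method: 48-hour compound exposure of cells in 96-well plates, five concentrations, linear interpolation of endpoints. At the GI50, growth is halved.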 Active and inactive are the calls of the source. Cut-off read from the data, not from the text of the source: active = GI50 up to about 1.1 µM and inactive = higher.
Key:
Experiment in all cases: NCI tumour cell line growth inhibition, 48 h
SK-MEL-5 = system: SK-MEL-5
M14 = system: M14
OVCAR-3 = system: OVCAR-3
HT-29 = system: HT-29
SW-620 = system: SW-620
SF-268 = system: SF-268
SNB-75 = system: SNB-75
OVCAR-4 = system: OVCAR-4
SK-MEL-2 = system: SK-MEL-2
IGROV-1 = system: IGROV-1
K562 = system: K562
HCT-116 = system: HCT-116
OVCAR-8 = system: OVCAR-8
CCRF-CEM = system: CCRF-CEM
UO-31 = system: UO-31
EKVX = system: EKVX

Measured: GI50

COc1cc2c(c(O)c1O)-c1ccc(OC)c(=O)cc1C(NC(C)=O)CC2 (stereo not drawn)
inactive: SK-MEL-5 3.58 µM | M14 7.41 µM | OVCAR-3 2.4 µM | HT-29 3.91 µM | SW-620 5.27 µM | SF-268 5.75 µM | SNB-75 2.57 µM | OVCAR-4 27.5 µM | SK-MEL-2 3.13 µM | IGROV-1 32.1 µM | K562 3.64 µM | HCT-116 5.57 µM | OVCAR-8 15.6 µM | CCRF-CEM 3.49 µM | UO-31 > 100 µM | EKVX 39 µM

Cc1cc([N+](=O)[O-])c(C)c2c1[nH]c1ccc(O)cc12
inactive: SK-MEL-5 > 100 µM | M14 > 100 µM | OVCAR-3 60.4 µM | HT-29 > 100 µM | SW-620 63.1 µM | SF-268 > 100 µM | SNB-75 > 100 µM | OVCAR-4 > 100 µM | SK-MEL-2 > 100 µM | K562 45.8 µM | HCT-116 > 100 µM | OVCAR-8 > 100 µM | CCRF-CEM 23.4 µM | UO-31 > 100 µM | EKVX > 100 µM

CCCCCCCC(=O)OCC1OC(OC)C(NC(=O)N(CCCl)N=O)C(O)C1O (stereo not drawn)
inactive: SK-MEL-5 15.1 µM | M14 8.41 µM | OVCAR-3 19.7 µM | HT-29 15 µM | SW-620 4.17 µM | SF-268 2.15 µM | SNB-75 4.72 µM | OVCAR-4 > 54.6 µM | SK-MEL-2 17.1 µM | IGROV-1 21.7 µM | K562 12.4 µM | HCT-116 3.22 µM | OVCAR-8 18.2 µM | CCRF-CEM 4.06 µM | UO-31 17.6 µM | EKVX 30.6 µM

COc1ccc(C(=O)C(c2ccc(OCc3ccccc3)cc2)c2ccc(OCc3ccccc3)cc2)cc1
inactive: SK-MEL-5 > 100 µM | M14 > 100 µM | OVCAR-3 > 100 µM | HT-29 > 100 µM | SW-620 > 100 µM | SF-268 > 100 µM | SNB-75 > 100 µM | OVCAR-4 > 100 µM | SK-MEL-2 > 100 µM | IGROV-1 > 100 µM | K562 > 100 µM | HCT-116 > 100 µM | OVCAR-8 > 100 µM | CCRF-CEM > 100 µM | UO-31 > 100 µM | EKVX > 100 µM

Nc1ccc2nc(Nc3ccc(F)cc3)cnc2c1
inactive: SK-MEL-5 > 100 µM | M14 > 100 µM | OVCAR-3 90.4 µM | HT-29 > 100 µM | SW-620 > 100 µM | SF-268 74.5 µM | SNB-75 > 100 µM | OVCAR-4 > 100 µM | SK-MEL-2 > 100 µM | K562 81.5 µM | HCT-116 > 100 µM | OVCAR-8 > 100 µM | CCRF-CEM 30.5 µM | UO-31 47.2 µM | EKVX > 100 µM

O=C(N/C(=C\c1ccc(Cl)cc1)c1nc2ccccc2[nH]1)c1ccccc1
inactive: SK-MEL-5 20.1 µM | M14 18.7 µM | OVCAR-3 19.6 µM | HT-29 27.8 µM | SW-620 27.4 µM | SF-268 16.3 µM | SNB-75 19.7 µM | OVCAR-4 14.7 µM | SK-MEL-2 19.1 µM | IGROV-1 19.4 µM | K562 15.1 µM | HCT-116 13.7 µM | OVCAR-8 24.5 µM | CCRF-CEM 20 µM | UO-31 18.8 µM | EKVX 26.9 µM

O=C1[C@@H]2C(c3ccccc3Br)=NO[C@@H]2C(=O)N1c1ccc(Cc2ccc(N3C(=O)[C@H]4C(c5ccccc5Br)=NO[C@H]4C3=O)cc2)cc1
inactive: SK-MEL-5 > 100 µM | M14 > 100 µM | OVCAR-3 > 100 µM | HT-29 > 100 µM | SW-620 > 100 µM | SF-268 > 100 µM | SNB-75 77.3 µM | OVCAR-4 > 100 µM | SK-MEL-2 > 100 µM | IGROV-1 > 100 µM | K562 > 100 µM | OVCAR-8 > 100 µM | CCRF-CEM > 100 µM | UO-31 54.8 µM | EKVX > 100 µM

Cc1cc(O)nc(CNC(=O)c2ccc3ccccc3c2)n1
inactive: SK-MEL-5 > 100 µM | M14 > 100 µM | OVCAR-3 > 100 µM | HT-29 > 100 µM | SW-620 > 100 µM | SF-268 > 100 µM | SNB-75 > 100 µM | OVCAR-4 > 100 µM | SK-MEL-2 > 100 µM | IGROV-1 > 100 µM | K562 > 100 µM | HCT-116 > 100 µM | OVCAR-8 > 100 µM | CCRF-CEM > 100 µM | UO-31 > 100 µM | EKVX > 100 µM

CCn1c(C)nc([N+](=O)[O-])c1Sc1ncc[nH]1
inactive: SK-MEL-5 48.4 µM | M14 32.4 µM | OVCAR-3 74.8 µM | HT-29 78.7 µM | SW-620 48.2 µM | SF-268 69.7 µM | SNB-75 50.6 µM | OVCAR-4 64.4 µM | SK-MEL-2 25.4 µM | IGROV-1 71 µM | K562 31.4 µM | HCT-116 43.2 µM | OVCAR-8 46.1 µM | CCRF-CEM 19.8 µM | UO-31 30.5 µM | EKVX 75.7 µM

COC(=O)c1cc2c(=O)n(C)c3ccccc3n2c1C(=O)OC
inactive: SK-MEL-5 > 100 µM | M14 47.9 µM | OVCAR-3 30 µM | HT-29 67.5 µM | SW-620 64.9 µM | SF-268 30.3 µM | SNB-75 16.1 µM | OVCAR-4 > 100 µM | SK-MEL-2 > 100 µM | IGROV-1 56.6 µM | K562 > 100 µM | OVCAR-8 35.8 µM | CCRF-CEM > 100 µM | UO-31 63.1 µM | EKVX 26.9 µM

Nc1ccccc1C(=O)/C=C/c1c(O)ccc2ccccc12
inactive: SK-MEL-5 > 100 µM | M14 > 100 µM | OVCAR-3 > 100 µM | HT-29 > 100 µM | SW-620 > 100 µM | SF-268 > 100 µM | SNB-75 > 100 µM | OVCAR-4 > 100 µM | SK-MEL-2 > 100 µM | IGROV-1 > 100 µM | K562 > 100 µM | HCT-116 > 100 µM | OVCAR-8 > 100 µM | CCRF-CEM > 100 µM | UO-31 > 100 µM | EKVX > 100 µM

COc1ccc2c(c1)O[C@@H]1c3ccc(OC)cc3OC[C@H]21
inactive: SK-MEL-5 17.4 µM | M14 26.9 µM | OVCAR-3 34 µM | HT-29 > 10 µM | SW-620 20.8 µM | SF-268 38.2 µM | SNB-75 16 µM | OVCAR-4 29.2 µM | SK-MEL-2 23 µM | IGROV-1 37 µM | K562 6.11 µM | HCT-116 27.7 µM | OVCAR-8 42.1 µM | CCRF-CEM 27.2 µM | UO-31 30.1 µM

COC(=O)C1C=CCON2CCc3c(n(S(=O)(=O)c4ccccc4)c4ccccc34)C12 (stereo not drawn)
inactive: SK-MEL-5 34.4 µM | M14 44.5 µM | OVCAR-3 33.7 µM | HT-29 43.4 µM | SW-620 14.8 µM | SF-268 > 100 µM | SNB-75 79.3 µM | OVCAR-4 > 31.6 µM | SK-MEL-2 > 100 µM | IGROV-1 > 55.3 µM | K562 17.9 µM | HCT-116 39.3 µM | OVCAR-8 50.9 µM | CCRF-CEM 32.5 µM | UO-31 42.9 µM | EKVX 41.5 µM
